Results on five compounds are retold here after patent US4581359A, “Pharmacological treatments with N-7-substituted derivatives of theophylline” (priority 1984, dated 1986).

Series [1] deals with mediator-induced broncoconstriction. Conditions: cited from earlier work.
For series [2] the following is noted: in vivo; cited from earlier work.
The conditions of series [3]: cited from earlier work.
The nature of series [4]: Concomitant dyphylline and aminophylline in two horses: plasma concentration, blood pressure, pulse (Example 3). Conditions: for Cmax: peak plasma concentration of theophylline.
Method: Two horses were administered dyphylline and aminophylline concomitantly.
The second horse was given a bolus injection of dyphylline (20 mg/kg as 100 mg/ml solution in D5W) over 15 seconds into the jugular vein. Aminophylline infusion (10 mg/kg dissolved in one liter of D5W) was started immediately and administered over 20 minutes.
A short description of series [5]: Fatal toxicity of theophylline, repeated aminophylline infusion in rabbits (Example 1). The series is classed as in vivo, female New Zealand White rabbits. Conditions: for Vd: rabbit, blood, iv. The method, then: Aminophylline (40 mg/kg) was infused into four rabbits over fifteen minutes once every two hours until the rabbits died. After the first infusion, blood concentrations of theophylline averaged about 100 mcg/ml in all four rabbits. […] In the second period total xanthine blood concentrations of theophylline averaged about 250 mcg/ml. Three rabbits died in this period with theophylline blood concentrations of about 250 mcg/ml. One rabbit died shortly after the third infusion which gave a blood theophylline concentration of about 400 mcg/ml. […] The last blood sample for each rabbit was collected immediately after the rabbit died.

A short description of series [6]: Theophylline (aminophylline) intravenous infusion in rabbits: blood concentration, pharmacokinetics, toxicity (Example 1). Conditions: for visible toxicity: aminophylline 40 mg/kg over 15 minutes, three rabbits. The class given is in vivo, female New Zealand White rabbits. The protocol: Analytical grade chemicals were used without further purification. All water was distilled prior to use. 250 mg/10 ml aminophylline injection (Searle Laboratories, Chicago, Ill.) was diluted with an appropriate amount of distilled water for injection. Dyphylline powder (Lemmon Company, Sellersville, Pa.) was dissolved in distilled water for injection.
A high-pressure liquid chromatographic (HPLC) system consisted of a delivery pump (M-6000A, Waters Associates, Milford, Mass.), sample injection apparatus (Model U6K, Waters Associates, Milford, Mass.), 30-cm reverse phase column (μBondapak C18, Waters Associates, Milford, Mass.), UV detector (Model 440, Waters Associates, Milford, Mass.) with wavelength of 280 nm and a dual pen recorder (Soltec Co., Encino, Calif.) which were used at ambient temperature.
The internal standard used was β-hydroxypropyl theophylline (Aldrich Chemical Co., Inc., Milwaukee, Wis.) in acetonitrile which was prepared in a 500 ml volumetric flask as a stock solution, and kept tightly sealed except during use throughout the experiment. Internal standard solution (0.4 ml) was added to an equal volume (0.4 ml) of sample to precipitate protein. After centrifuging for 10 minutes, the supernatant was injected into the HPLC. The HPLC operating conditions included a mobile phase composed of acetonitrile (6 percent V/V) in distilled water and a flow rate of 2.0 ml/min.
A typical semilogrithmic plot of a blood theophylline concentration versus time curves, for each of the three rabbits after a zero-order aminophylline infusion of 40 mg/kg over fifteen minutes, is shown in FIG. 2. The data were fitted to a two-compartment open pharmacokinetic model with first order elimination using PROPHET (PROPHET computer system, FIT FUN routine, Director, Chemical/Biological Information Handling Program, Division of Research Resources, NIH, Bethesda, MD.) The parameters generated from three rabbits were corrected for infusion time, (as described by Gibaldi) and are listed in Table II.

A short description of series [7]: Single and combined intravenous methyl xanthines in rabbits: heart rate, deaths, plasma concentrations (Example 6). The series is classed as in vivo, female rabbits. Conditions: for heart rate, individual drug treatment: one rabbit each, normal about 220 bpm. The method, then:
T 40 mg/kg of aminophylline infused at the rate of 0.21 ml/min over 30
T/D 40 mg/kg of aminophylline infused at the rate of 0.21 ml/min over 30
T/E 40 mg/kg of aminophylline infused at the rate of 0.21 ml/min over 30
T/P 40 mg/kg of aminophylline infused at the rate of 0.21 ml/min over 30

For series [8] the following is noted: cited from earlier work. This is another data set of the same source.
A short description of series [9]: Concurrent administration of theophylline and dyphylline in rabbits: pharmacokinetics and toxicity (Example 1). Conditions: rabbit, iv, 40 mg/kg. The method, then: All experiments of this example were performed using female New Zealand White rabbits. These rabbits (2.4-3.6 kg) were housed in a controlled environment and allowed free access to water and food.
Before dosing with drug the rabbit ear hair was clipped and treated with hair remover lotion (sold under the trademark NAIR, Carter-Wallace, Inc., New York, N.Y.), a catheter (Quick-Cath, 20 Ga, Travenol Laboratories, Inc., Deerfield, Ill.) and sterile intermittent infusion plug were then inserted in the rabbit's ear vein for infusion. […] For each separate administration of theophylline, a suitable amount of aminophylline (40 mg/kg) was dissolved in distilled water to make 10 ml injectable solution which was administered into a rabbit's ear vein as a continuous infusion over a period of 15 minutes.
Blood samples were collected from an ear vein (in the opposite ear from the infusion) at predetermined time intervals. Before collecting each sample, the rabbit ear was treated topically with xylene to dilate the ear vein for convenient sample collection. Immediately after each blood sample was drawn, 0.4 ml of blood was transfered to the centrifuge tube and 0.4 ml of acetronitrile with appropriate internal standard was added to precipitate the protein and extract drug components. After vortexing well, the blood acetonitrile mixture was centrifuged at 3000×G for ten minutes, and 10 μl of supernatent solution was then injected into the HPLC.
The post infusion data of theophylline were fitted to a two-compartment open model using the same procedure as described above. Although samples were collected while infusion of dyphylline was continuing, only post infusion data were used for dyphylline pharmacokinetic analysis.

Series [10] in a line: Plasma and cerebral spinal fluid concentrations in an anesthetized horse (Example 4). Conditions: 0, 30 mins, 1 hour, 2 hours, 3 hours, 4 hours, 24 hours; for Cerebral spinal fluid concentration, theophylline: aminophylline 10 mg/kg + dyphylline 20 mg/kg bolus.
Method: (§1) One horse was administered acetyl promazine thiamyol sodium, quaifensin, and halothane to produce general anesthesia. Dyphylline (20 mg/kg) was given as an intravenous bolus injection in less than 15 seconds and aminophylline (10 mg/kg) was given as an infusion over about 20 minutes. Plasma and cerebral spinal fluid were collected and assayed by high pressure liquid chromatography for both dyphylline and theophylline.
The conditions of series [11]: in vivo.
Method: as §1
The conditions of series [12]: cited from earlier work. This is another data set of the same source.
The conditions of series [13]: Winter; cited from earlier work.

Values joined by “and” are separate entries in the source; they are usually repeats but may differ in a detail not shown here. Equal entries are not always repeated. Where two headings read alike, the source gives them in different places.

`Cn1c(=O)c2c(ncn2CC(=O)O)n(C)c1=O` [acephylline, 1,3-dimethylxanthinylacetic acid]: in [1] (guinea-pigs), the “efficacy against mediator-induced broncoconstriction” value was “ineffective”. The oral absorption entry in series [2] is given as “not absorbed orally”. In addition, the “conversion to theophylline in the body” value in series [3] (literature) is “not converted to theophylline in the body”.
As to `Cn1c(=O)c2[nH]cnc2n(C)c1=O` [aminophylline], the “Pulse, Horse 1” value in series [4] (10 min to 240 min as for systolic, Horse 1, time 0: 42) is 44 beats per minute and 60 beats per minute and 56 beats per minute. The “Blood pressure Mean, Horse 1” value in series [4] (10 min to 240 min as for systolic, Horse 1, time 0: 119) is 106 and 156 and 123. For the same compound, the “Blood pressure D, Horse 1” value in series [4] (10 min to 240 min as for systolic, Horse 1, time 0: 156/98) is 83 and 117 and 90. For the same compound, the toxicity and death result in [5] (aminophylline 40 mg/kg every two hours until death) is “All the rabbits died following a short period of severe convulsions”. Besides, the visible toxicity result in [6] was “caused some visible toxicity but was not lethal”.
On to `Cn1c(=O)c2c(ncn2CCO)n(C)c1=O` [etophylline, β-hydroxyethylthophylline], for which, in series [1] (based on effective plasma drug concentrations), the “activity relative to theophylline” value is recorded as 0.44 times theophylline. Also, the “heart rate, individual drug treatment” value in series [7] came to 100 bpm. Further, in series [3] (in vivo), the “conversion to theophylline in the body” value is given as “not converted to theophylline in the body”.
`CC(O)Cn1cnc2c1c(=O)n(C)c(=O)n2C` (stereo not drawn) [proxyphylline, 7-β-hydroxypropyl-theophylline]: in series [7], the “heart rate, individual drug treatment” value is reported as “about 96 bpm”. Also, the “plasma concentration of proxyphylline” value in series [8] (combined with theophylline and dyphylline (Bracher; Werdermann)) was “less than 9.0 mcg/ml”. Also, the “plasma concentration, each drug” value in series [8] (dyphylline and proxyphylline (Joos et al.), 90 min) is “about 13 mcg/ml”.
Turning to `Cn1c(=O)c2[nH]cnc2n(C)c1=O` [theophylline], the concentration at 40 min in [4] (horse, in vivo, iv, 10 mg/kg) fell in the range of 9 to 10 µg/mL. Further, the Cmax (commonly the highest concentration seen after dosing) amounted to 18 µg/mL in series [4] (horse, in vivo, iv, 10 mg/kg, first horse, aminophylline 10 mg/kg over 17 minutes, dyphylline 20 mg/kg bolus at 40 minutes) and 35 µg/mL in series [4] (horse, in vivo, iv, 10 mg/kg, second horse, dyphylline 20 mg/kg bolus then aminophylline 10 mg/kg over 20 minutes). The Vd (commonly the apparent volume that relates the amount in the body to the concentration in plasma or blood) in [9] (in vivo, Vd(B), theophylline followed by dyphylline, b237, b241, b245, b249 rabbits 45-48, b250 mean) was 0.35 L/kg; in [9] (Vc), 0.151 L/kg; in series [9] (Vd(B)), 0.403 L/kg; in series [9] (average total volume of distribution of theophylline given with dyphylline), around 0.35 L/kg; in [5] (40 mg/kg, from FIG. 3 data 1 to 2 hours, prior to second infusion, read-out: volume of distribution (Vd), individual rabbits), 0.37 L/kg; in [5] (40 mg/kg, from FIG. 3 data 1 to 2 hours, four rabbits, read-out: volume of distribution (Vd), average) it was 0.35 L/kg. In addition, the Vd in [6] (rabbit, in vivo, iv, 40 mg/kg, Vd) is 0.279 L/kg; in series [6] (rabbit, in vivo, iv, 40 mg/kg, Vel (β)), 0.562 L/kg; in series [6] (rabbit, in vivo, iv, 40 mg/kg, average total volume of distribution of theophylline given alone), around 0.59 L/kg. Also, the concentration at 0.25 h was around 150 µg/mL in series [9]; around 100 µg/mL in series [6] (rabbit, in vivo, iv, 40 mg/kg, average blood concentration of theophylline immediately after stopping the infusion, Table II rabbits); 110 to 130 µg/mL in series [6] (rabbit, in vivo, iv, 40 mg/kg, blood concentration of theophylline when the infusion was stopped). Further, the half-life (as a rule, the time needed for the level to fall by half in the phase considered) in [9] (average half-life of theophylline) is 6 to 6.5 h; in series [6] (rabbit, in vivo, iv, 40 mg/kg, aminophylline 40 mg/kg, alone, rabbits 29, 30, 32, mean), 5.73 h. The toxicity result in [7] (rabbits) is given as “close to lethal”. The “Cerebral spinal fluid concentration, theophylline” value stood at 0 µg/mL in [10] and 5.3 µg/mL in series [10] (10 mg/kg). Further, the “Plasma concentration, theophylline” value in [10] (aminophylline 10 mg/kg over 20 min + dyphylline 20 mg/kg bolus) worked out at 0 ng/mL. Also, the “penetration into cerebral spinal fluid” value in series [11] is on record as “penetrate into cerebral spinal fluid”. Besides, in series [12] (humans), the effective plasma concentration was 10 to 20 µg/mL. The “effectiveness and toxicity, dyphylline versus theophylline” value in series [12] (literature) was “more effective and toxic than dyphylline”. For the same compound, the “effects of excessive dose or too rapid administration” value in [12] (total dose in less than about twenty minutes) was “blood pressure drop and may develop convulsions which in some instances lead to death”. In addition, in series [13], the “total volume of distribution, average” value is recorded as “about 0.48 L/kg”. In addition, the tissue distribution result in [3] (literature) is “penetrate the central nervous system, to infiltrate heart tissue and to distribute to lung tissue”. Also, the “average blood concentration of theophylline after first infusion” value in series [5] (four rabbits, all survived first period, 40 mg/kg) is listed as “about 100 mcg/ml”. Besides, the “volume of distribution (Vd), individual rabbits” value in series [5] (from FIG. 3 data 1 to 2 hours, prior to second infusion, 40 mg/kg) was 0.32 L/kg and 0.33 L/kg. For the same compound, the “blood theophylline concentration after third infusion (rabbit died)” value in series [5] (one rabbit, 40 mg/kg) is listed as “about 400 mcg/ml”. Also, the “average blood concentration of theophylline, second period (three rabbits died)” value in series [5] (second infusion, 40 mg/kg) is recorded as “about 250 mcg/ml”. In addition, in series [5] (theophylline alone), the “theophylline concentration causing convulsions and death” value was around 250 µg/mL. Moreover, the visible toxicity entry in series [6] is given as “one rabbit exhibited obvious signs of theophylline toxicity”. Further, the t1/2 in series [6] (aminophylline 40 mg/kg, alone, rabbits 29, 30, 32, mean, 40 mg/kg) is 6.3 h and 6.861 h and 6.30 h. Besides, in series [6] (rabbit, in vivo, iv, 40 mg/kg, k10), the k el is 6.75e-05 s⁻¹.
